What was measured:
Format in all cases: in vivo
wheat variety Ritmo [1] = assay: Plot trial in Germany: green leaf area by visual scoring; details: sprays at BBCH 39 and 59
Experimental: In Germany a plot trial was set up with the wheat variety Ritmo in order to investigate the effect of bixafen on the physiology, morphology and abiotic stress tolerance of wheat plants under realistic agricultural conditions. The products under test were applied to the plants, in the form of sequential spray sequences (BBCH 39 and 59). The spray volume was 400 l of water per hectare. In each trial component, 5 repetitions were carried out. [table] The duration of green coloration of the leaf area was captured by regular visual scoring of the fraction of green leaf area.

wheat variety Ritmo [2] = assay: Plot trial: chlorophyll content of leaves (pigment extraction method of Ziegler and Ehle)
wheat variety Ritmo [3] = assay: Plot trial: yield components; details: sprays at BBCH 39 and 59
[4] = system: infection-free wheat plants of the cultivar Passat; assay: Glasshouse trial: green leaf area by visual scoring; details: glasshouse
Experimental: (§1) In a glasshouse trial under controlled conditions, the effect of bixafen was investigated on the physiology, morphology and abiotic stress tolerance of infection-free wheat plants of the cultivar […] plants were grown in 10-litre containers over a period of 4 months. The substrate used was standard earth type ED 73 (Fröndenberg, Germany)+C-Horizont+Sand (4:2:1). The supply of nutrient to the plants took place by feeding with a 0.2% strength Flory 2 liquid fertilizer solution (from Euflor, Munich) once every two weeks. The plants were supplied with water as required. In each component of the trial, 10 repetitions were carried out. To prevent infestation with powdery mildew, Proquinazid (Talius® was applied once. The incidence of aphids and spider mites was avoided by treatments with Karate®, Bulldock® and Sumicidin®. The products under test were applied to the plants, in the form of sequential spray sequences (BBCH 39 and 59). The spray volume was 300 l of water per hectare. [table] The duration of the green coloration of the leaf area was captured on the basis of regular visual scoring of the fraction of the green leaf area.

[5] = system: infection-free wheat plants of the cultivar Passat; assay: Glasshouse trial: yield components; details: glasshouse, sprays at BBCH 39 and 59
[6] = system: infection-free wheat plants of the cultivar Passat; assay: Glasshouse trial: size of the flag leaf; details: at BBCH 83-85
Experimental: as §1, with “Morphological parameters measured, additionally, were the length and width, i.e. the size” for “The duration”, “flag leaf. This was greatest with” for “green coloration of”, “succinate dehydrogenase (SDH) inhibitor bixafen, in comparison to” for “leaf area was captured on”, “other comparison fungicides.” for “basis of regular visual scoring of the fraction of the green leaf area.”

[7] = system: infection-free wheat plants of the cultivar Passat; assay: Glasshouse trial: time of heading (ear emergence); design: time of heading of wheat (ears emerged): unit not given here
Experimental: (§2) In a glasshouse trial under controlled conditions, the effect of bixafen was investigated on the physiology, morphology and abiotic stress tolerance of infection-free wheat plants of the cultivar […] plants were grown in 10-litre containers over a period of 4 months. The substrate used was standard earth type ED 73 (Fröndenberg, Germany)+C-Horizont+Sand (4:2:1). The supply of nutrient to the plants took place by feeding with a 0.2% strength Flory 2 liquid fertilizer solution (from Euflor, Munich) once every two weeks. The plants were supplied with water as required. In each component of the trial, 10 repetitions were carried out.

[8] = system: infection-free wheat plants of the cultivar Passat; assay: Glasshouse trial: temperature of ears and leaves as measure of transpiration activity
Experimental: as §2

[9] = system: infection-free wheat plants of the cultivar Passat; assay: Glasshouse trial: gas exchange activity of wheat ears; details: development stage BBCH 75
Experimental: as §2

[10] = 7 days after second fungicide application
[11] = 14 days after second fungicide application
[12] = 21 days after second fungicide application
[13] = 28 days after second fungicide application
[14] = 35 days after second fungicide application
[15] = 42 days after second fungicide application
[16] = 49 days after second fungicide application
[17] = BBCH 75 (mature milk), leaf F-1
[18] = BBCH 75 (mature milk), leaf F-2
[19] = BBCH 85 (mature dough), leaf F-1
[20] = BBCH 85 (mature dough), leaf F-2
[21] = 68 days after second fungicide application (so in the source)
[22] = 75 days after second fungicide application (so in the source)
[23] = 82 days after second fungicide application (so in the source)
[24] = 89 days after second fungicide application (so in the source)
[25] = 96 days after second fungicide application (so in the source)
[26] = 103 days after second fungicide application (so in the source)
[27] = 110 days after second fungicide application (so in the source)
[28] = 117 days after second fungicide application (so in the source)

SMILES: O=C(Nc1ccccc1-c1ccc(Cl)cc1)c1cccnc1Cl [Boscalid, 2-chloro-N-(4′-chlorobiphenyl-2-yl)nicotinamide]
- green leaf area of the flag leaf (wheat variety Ritmo [1]; [10]): 96.0 % leaf area
- green leaf area of the second-from-top leaf (F-1) (wheat variety Ritmo [1]; [10]): 94.4 % leaf area
- green leaf area of the third-from-top leaf (F-2) (wheat variety Ritmo [1]; [10]): 90.3 % leaf area
- green leaf area of the flag leaf (wheat variety Ritmo [1]; [11]): 95.5 % leaf area
- green leaf area of the second-from-top leaf (F-1) (wheat variety Ritmo [1]; [11]): 91.8 % leaf area
- green leaf area of the third-from-top leaf (F-2) (wheat variety Ritmo [1]; [11]): 85.8 % leaf area
- green leaf area of the flag leaf (wheat variety Ritmo [1]; [12]): 86.1 % leaf area
- green leaf area of the second-from-top leaf (F-1) (wheat variety Ritmo [1]; [12]): 74.7 % leaf area
- green leaf area of the third-from-top leaf (F-2) (wheat variety Ritmo [1]; [12]): 61.5 % leaf area
- green leaf area of the flag leaf (wheat variety Ritmo [1]; [13]): 73.6 % leaf area
- green leaf area of the second-from-top leaf (F-1) (wheat variety Ritmo [1]; [13]): 60.0 % leaf area
- green leaf area of the third-from-top leaf (F-2) (wheat variety Ritmo [1]; [13]): 41.0 % leaf area
- green leaf area of the flag leaf (wheat variety Ritmo [1]; [14]): 43.2 % leaf area
- green leaf area of the second-from-top leaf (F-1) (wheat variety Ritmo [1]; [14]): 25.5 % leaf area
- green leaf area of the third-from-top leaf (F-2) (wheat variety Ritmo [1]; [14]): 4.6 % leaf area
- green leaf area of the flag leaf (wheat variety Ritmo [1]; [15]): 7.0 % leaf area
- green leaf area of the second-from-top leaf (F-1) (wheat variety Ritmo [1]; [15]): 0 % leaf area
- green leaf area of the third-from-top leaf (F-2) (wheat variety Ritmo [1]; [15]): 0 % leaf area
- green leaf area of the second-from-top leaf (F-1) (wheat variety Ritmo [1]; [16]): 0 % leaf area
- Chlorophyll content (wheat variety Ritmo [2]; BBCH 75 (mature milk), leaf F): 1597 µg/g
- Chlorophyll content (wheat variety Ritmo [2]; [17]): 1505 µg/g
- Chlorophyll content (wheat variety Ritmo [2]; [18]): 826 µg/g
- Chlorophyll content (wheat variety Ritmo [2]; BBCH 85 (mature dough), leaf F): 188 µg/g
- Chlorophyll content (wheat variety Ritmo [2]; [19]): 160 µg/g
- Chlorophyll content (wheat variety Ritmo [2]; [20]): 110 µg/g
- Ears/m^2 (wheat variety Ritmo [3]): 444
- Harvest Index (wheat variety Ritmo [3]): 58.6
- Straw (wheat variety Ritmo [3]): 514 g m^−2
- TKM (thousand-kernel mass) (wheat variety Ritmo [3]): 44.6 g
- Yield (wheat variety Ritmo [3]): 7.8 t ha^−1

SMILES: CO/N=C(/C1=NOCCO1)c1ccccc1Oc1ncnc(Oc2ccccc2Cl)c1F [Fluoxastrobin]
- green leaf area of the flag leaf (wheat variety Ritmo [1]; [10]): 98.7 % leaf area
- green leaf area of the second-from-top leaf (F-1) (wheat variety Ritmo [1]; [10]): 98.8 % leaf area
- green leaf area of the third-from-top leaf (F-2) (wheat variety Ritmo [1]; [10]): 96.3 % leaf area
- green leaf area of the flag leaf (wheat variety Ritmo [1]; [11]): 98.7 % leaf area
- green leaf area of the second-from-top leaf (F-1) (wheat variety Ritmo [1]; [11]): 98.0 % leaf area
- green leaf area of the third-from-top leaf (F-2) (wheat variety Ritmo [1]; [11]): 95.5 % leaf area
- green leaf area of the flag leaf (wheat variety Ritmo [1]; [12]): 98.3 % leaf area
- green leaf area of the second-from-top leaf (F-1) (wheat variety Ritmo [1]; [12]): 96.1 % leaf area
- green leaf area of the third-from-top leaf (F-2) (wheat variety Ritmo [1]; [12]): 92.1 % leaf area
- green leaf area of the flag leaf (wheat variety Ritmo [1]; [13]): 95.8 % leaf area
- green leaf area of the second-from-top leaf (F-1) (wheat variety Ritmo [1]; [13]): 93.5 % leaf area
- green leaf area of the third-from-top leaf (F-2) (wheat variety Ritmo [1]; [13]): 88.5 % leaf area
- green leaf area of the flag leaf (wheat variety Ritmo [1]; [14]): 63.0 % leaf area
- green leaf area of the second-from-top leaf (F-1) (wheat variety Ritmo [1]; [14]): 47.0 % leaf area
- green leaf area of the third-from-top leaf (F-2) (wheat variety Ritmo [1]; [14]): 31.5 % leaf area
- green leaf area of the flag leaf (wheat variety Ritmo [1]; [15]): 23.7 % leaf area
- green leaf area of the second-from-top leaf (F-1) (wheat variety Ritmo [1]; [15]): 9.8 % leaf area
- green leaf area of the third-from-top leaf (F-2) (wheat variety Ritmo [1]; [15]): 1.9 % leaf area
- green leaf area of the second-from-top leaf (F-1) (wheat variety Ritmo [1]; [16]): 0 % leaf area
- Chlorophyll content (wheat variety Ritmo [2]; BBCH 75 (mature milk), leaf F): 1924 µg/g
- Chlorophyll content (wheat variety Ritmo [2]; [17]): 1671 µg/g
- Chlorophyll content (wheat variety Ritmo [2]; [18]): 1126 µg/g
- Chlorophyll content (wheat variety Ritmo [2]; BBCH 85 (mature dough), leaf F): 630 µg/g
- Chlorophyll content (wheat variety Ritmo [2]; [19]): 534 µg/g
- Chlorophyll content (wheat variety Ritmo [2]; [20]): 415 µg/g
- Ears/m^2 (wheat variety Ritmo [3]): 409
- Harvest Index (wheat variety Ritmo [3]): 58.1
- Straw (wheat variety Ritmo [3]): 581 g m^−2
- TKM (thousand-kernel mass) (wheat variety Ritmo [3]): 45.8 g
- Yield (wheat variety Ritmo [3]): 8.2 t ha^−1
- green leaf area of the flag leaf (F) [4, 21]: 100 % leaf area
- green leaf area of the second-from-top leaf (F-1) [4, 21]: 100 % leaf area
- green leaf area of the third-from-top leaf (F-2) [4, 21]: 100 % leaf area
- green leaf area of the flag leaf (F) [4, 22]: 100 % leaf area
- green leaf area of the second-from-top leaf (F-1) [4, 22]: 100 % leaf area
- green leaf area of the third-from-top leaf (F-2) [4, 22]: 95 % leaf area
- green leaf area of the flag leaf (F) [4, 23]: 100 % leaf area
- green leaf area of the second-from-top leaf (F-1) [4, 23]: 95 % leaf area
- green leaf area of the third-from-top leaf (F-2) [4, 23]: 82 % leaf area
- green leaf area of the flag leaf (F) [4, 24]: 95 % leaf area
- green leaf area of the second-from-top leaf (F-1) [4, 24]: 84 % leaf area
- green leaf area of the third-from-top leaf (F-2) [4, 24]: 54 % leaf area
- green leaf area of the flag leaf (F) [4, 25]: 85 % leaf area
- green leaf area of the second-from-top leaf (F-1) [4, 25]: 56 % leaf area
- green leaf area of the third-from-top leaf (F-2) [4, 25]: 29 % leaf area
- green leaf area of the flag leaf (F) [4, 26]: 60 % leaf area
- green leaf area of the second-from-top leaf (F-1) [4, 26]: 30 % leaf area
- green leaf area of the third-from-top leaf (F-2) [4, 26]: 18 % leaf area
- green leaf area of the flag leaf (F) [4, 27]: 37 % leaf area
- green leaf area of the second-from-top leaf (F-1) [4, 27]: 18 % leaf area
- green leaf area of the third-from-top leaf (F-2) [4, 27]: 7 % leaf area
- green leaf area of the flag leaf (F) [4, 28]: 12 % leaf area
- green leaf area of the second-from-top leaf (F-1) [4, 28]: 6 % leaf area
- green leaf area of the third-from-top leaf (F-2) [4, 28]: 0 % leaf area
- Ears/pot [5]: 41.0
- Harvest Index [5]: 29.0%
- Kernels/ear [5]: 21.9
- Straw [5]: 74.5 g/pot
- TKM (thousand-kernel mass) [5]: 34.3 g
- Yield [5]: 30.5 g/pot
- Length of the flag leaf [6]: 25.6 cm
- Width of the flag leaf [6]: 1.4 cm
- Area of the flag leaf ([6]; calculated using the formula A = 0.67 × length × width): 24.01 cm^2
- Area [rel.] of the flag leaf ([6]; untreated = 100): 110 rel.
- time of heading of wheat (ears emerged) ([7]; 45 days after sowing): 11.4
- time of heading of wheat (ears emerged) ([7]; 50 days after sowing): 33.1
- time of heading of wheat (ears emerged) ([7]; 55 days after sowing): 43.8
- time of heading of wheat (ears emerged) ([7]; 60 days after sowing): 49.9
- time of heading of wheat (ears emerged) ([7]; 65 days after sowing): 61.1
- time of heading of wheat (ears emerged) ([7]; 70 days after sowing): 76.4
- time of heading of wheat (ears emerged) ([7]; 75 days after sowing): 87.8
- time of heading of wheat (ears emerged) ([7]; 80 days after sowing): 93.1
- time of heading of wheat (ears emerged) ([7]; 85 days after sowing): 97.1
- Temperature (as a measure of the transpiration activity) ([8]; BBCH 75, ear): 23.1 °C
- Temperature (as a measure of the transpiration activity) ([8]; BBCH 75, leaf): 22.3 °C
- Temperature (as a measure of the transpiration activity) ([8]; BBCH 80, ear): 18.9 °C
- Temperature (as a measure of the transpiration activity) ([8]; BBCH 80, leaf): 16.5 °C
- Temperature (as a measure of the transpiration activity) ([8]; BBCH 85, ear): 24.8 °C
- Temperature (as a measure of the transpiration activity) ([8]; BBCH 85, leaf): 23.4 °C
- Temperature (as a measure of the transpiration activity) ([8]; BBCH 90, ear): 23.9 °C
- Temperature (as a measure of the transpiration activity) ([8]; BBCH 90, lear (so in the source)): 22.7 °C
- Photosynthesis (gas exchange activity of wheat ears) [9]: −2.44 a CO2 per ear
- Respiration (gas exchange activity of wheat ears) [9]: 2.96 b CO2 per ear

— patent publication US20110196000A1, “Use of succinate dehydrogenase (SDH) inhibitors in the treatment of plant species from the family of the true grasses” (Bayer CropScience AG, priority 2010, published 2011)
